Data set [1] can be described thus: NEF-105 study: budesonide plasma pharmacokinetics. The format is in vivo. The note with it: human, po.
Data set [2] concerns patients with IgAN. The note with it: TESTING trial, at 3 months, diminishing over time; cited from earlier work.

The compound `CCCC1O[C@@H]2C[C@H]3[C@@H]4CCC5=CC(=O)C=C[C@]5(C)[C@H]4[C@@H](O)C[C@]3(C)[C@]2(C(=O)CO)O1` (some centres unmarked) [budesonide] showed a half-life in data set [1] of approximately 5 h.

On to `C[C@H]1C[C@@H]2[C@H]([C@@H](O)C[C@@]3(C)[C@H]2CC[C@]3(O)C(=O)CO)[C@@]2(C)C=CC(=O)C=C12` [methylprednisolone], for which the “Effect on proteinuria vs placebo” value in data set [2] is recorded as “substantial effect”.

These data come from publication PMC11298173 (Drug Design, Development and Therapy, 2024).
